Measurements: US20250325467A1, “COMPOSITIONS FOR PREVENTING OR TREATING SKIN AGING” (ESTETRA SRL, priority 2021, published 2025)

Key:
[1] = female, Lister Hooded, rat, in vivo, 0.5 h
Experimental: Tissue distribution was determined in female rats (partially pigmented and non-pigmented) using [^14C]-estetrol.
A group of six female Lister Hooded rats each received a single oral dose of [^14C]-estetrol. At each selected time (see below) one animal was killed (by overdose of CO2) followed by immediate snap freezing in hexane/solid CO2. The carcasses were retained for examination of the tissue distribution of radioactivity using the technique of quantitative whole body autoradiography (QWBA).
Times for analysis were: (0.5, 8, and 24 hours, 7, 14 and 35 days)
Frozen carcasses were subjected to whole-body autoradiography.
Where concentrations are reported, radioactivity was assumed to be associated with [^14C]-estetrol or any metabolic products derived from [^14C]-estetrol. The specific activities of the dosed test compounds were used for the calculation of concentrations in all cases. Recoveries of radioactivity are reported as percentage of administered radioactivity (% dose). Radioactivity concentrations are also reported as pg equivalents/g.

[2] = tested on: human monocytes; assay: Immune cell polarization (qPCR of M1/M2 markers), human monocytes; type: cell-based; details: activated human monocytes; qPCR markers NOS2, ARG1
Experimental: Immune cell polarization was evaluated in vitro using markers for M1/TH-1 (NOS2) and M2/TH-2 (ARG1) phenotype with human monocytes and mouse monocytes (BMDM bone marrow derived monocytes).
Human blood was collected under national ethical approval with full informed written patient consent. Freshly isolated human blood was collected in EDTA vacutainer tubes, diluted 1:1 in PBS and gently layered onto histopaque (Merck). Tubes were immediately centrifuged at 100×g for 30 minutes and the whitish buffy layer formed at the histopaque interface aspirated and washed (centrifuged 100×g, 10 minutes) twice with sterile PBS. Untouched classical (CD14++, CD16−) monocytes were isolated from the washed buffy layer cells using the Miltenyi Classical Monocyte Isolation Kit, LS columns and a MidiMACs separator (Miltenyi). Isolated cells were seeded into tissue culture plates and stimulated to differentiate using PMA.
An experiment was conducted to evaluate the anti-inflammatory effects of E4 or vehicle (negative control). qPCR methodology was used to assess the effects of E2 and E4 on immune cell polarization using well validated marker of pro-inflammatory (NOS2 for MI/TH-1 phenotype) and anti-inflammatory (ARG1 for ME/TH-2 phenotype) activity.

C[C@]12CC[C@@H]3c4ccc(O)cc4CC[C@H]3[C@@H]1[C@@H](O)[C@@H](O)[C@@H]2O [E4, 1,3,5 (10)-estratrien-3,15alpha,16alpha,17beta-tetrol]
radioactivity based on total dose/tissue, non-pigmented skin [1]: 1.1%
radioactivity based on total dose/tissue, pigmented skin [1]: 1.7%
immune cell polarization (monocyte subtype M1/M2) [2]: switch from monocyte subtype M1 (pro-inflammatory) to subtype M2 (healing)
